The source made the active and inactive calls. No cut-off for these calls is given here.
Assays:
MDA-MB-231 [1] = test: Cytotoxicity against human MDA-MB-231 cells assessed as cell growth inhibition after 48 hrs by WST-1 assay; format: functional, cell-based; conditions: MDA-MB-231, 48 h
MDA-MB-468 [2] = test: Cytotoxicity against human MDA-MB-468 cells assessed as cell growth inhibition after 48 hrs by WST-1 assay; format: functional, cell-based; conditions: MDA-MB-468, 48 h
[3] = Cytotoxicity against human SKBR3 cells overexpressing HER2 assessed as cell growth inhibition after 48 hrs by WST-1 assay; format: functional, cell-based; conditions: SK-BR-3, 48 h
MCF7 [4] = test: Cytotoxicity against human MCF7 cells assessed as cell growth inhibition after 48 hrs by WST-1 assay; format: functional, cell-based; conditions: MCF7, 48 h
SK-BR-3 [5] = test: Decrease in ALDH activity in human SKBR3 cells overexpressing HER2 assessed as reduction in ALDH-positive population at 30 uM after 72 hrs by Aldefluor assay; format: functional
[6] = Decrease in HER2 expression in human SKBR3 cells overexpressing HER2 by immunohistochemistry staining; format: functional, cell-based; conditions: SK-BR-3
MDA-MB-468 [7] = test: Cytotoxicity against human MDA-MB-468 cells assessed as cell growth inhibition at 300 uM after 48 hrs by WST-1 assay; format: functional, cell-based
MCF7 [8] = test: Cytotoxicity against human MCF7 cells assessed as cell growth inhibition at 300 uM after 48 hrs by WST-1 assay; format: functional, cell-based
SK-BR-3 [9] = test: Decrease in ALDH activity in human SKBR3 cells overexpressing HER2 assessed as ALDH-positive population by flow cytometry in presence of ALDH inhibitor DEAB (reference value: 0.7%); format: functional; design: scale not given: the % may be the effect or the level left
SK-BR-3 [10] = test: Decrease in ALDH activity in human SKBR3 cells overexpressing HER2 assessed as ALDH-positive population by flow cytometry in absence of ALDH inhibitor DEAB (reference value: 20%); format: functional; design: scale not given: the % may be the effect or the level left
SK-BR-3 [11] = test: Inhibition of cell migration in human SKBR3 cells overexpressing HER2 at 25 uM after 8 hrs by microtiter plate reader analysis; format: functional; conditions: SK-BR-3, 8 h
MDA-MB-231 [12] = test: Inhibition of cell migration in human MDA-MB-231 cells at 25 uM after 8 hrs by microtiter plate reader analysis; format: functional; conditions: MDA-MB-231, 8 h
MCF7 [13] = test: Inhibition of cell migration in human MCF7 cells at 25 uM after 8 hrs by microtiter plate reader analysis; format: functional; conditions: MCF7, 8 h
SK-BR-3 [14] = test: Inhibition of cell adhesion in human SKBR3 cells overexpressing HER2 at 25 uM after 30 to 90 mins by microtiter plate reader analysis; format: functional
MDA-MB-231 [15] = test: Inhibition of cell adhesion in human MDA-MB-231 cells at 25 uM after 30 to 90 mins by microtiter plate reader analysis; format: functional
MCF7 [16] = test: Inhibition of cell adhesion in human MCF7 cells at 25 uM after 30 to 90 mins by microtiter plate reader analysis; format: functional
MDA-MB-231 [17] = test: Cytotoxicity against human MDA-MB-231 cells assessed as cell growth inhibition at 300 uM after 48 hrs by WST-1 assay; format: functional, cell-based

Row | Compound | IC50 (MDA-MB-231 [1]) | IC50 (MDA-MB-468 [2]) | IC50 [3] | IC50 (MCF7 [4]) | inhibition [6] | inhibition (MDA-MB-468 [7]) | inhibition (MCF7 [8]) | further results
1 | Oc1ccc(/C=N\NC(=S)NC2CCCCC2)cc1 | 115 µM | 242 µM | 29.9 µM | 50.4 µM | Active | – | – | inhibition (SK-BR-3 [5]): Active
2 | O=[N+]([O-])c1cccc(/C=N\NC(=S)NC2CCCCC2)c1 | 84.8 µM | – | 34.6 µM | – | – | inactive | inactive | –
3 | S=C(N/N=C\c1cccs1)NC1CCCCC1 | 58.6 µM | 337 µM | 30.4 µM | 49.8 µM | Active | – | – | inhibition (SK-BR-3 [5]): Active
4 | CN(C)c1ccc(/C=N\NC(=S)NC2CCCCC2)cc1 | 125 µM | 280 µM | 31.2 µM | 51.1 µM | – | – | – | –
5 | O=c1[nH]cc(F)c(=O)[nH]1 [FLUOROURACIL] | 77.3 µM | – | 38.9 µM | 34.5 µM | – | – | – | –
6 | COc1cccc(/C=N\NC(=S)NC2CCCCC2)c1 | 88.9 µM | 46.7 µM | 30.9 µM | 49.9 µM | Active | – | – | inhibition at 30 µM (SK-BR-3 [5]; SK-BR-3, 72 h): 50%; Activity (SK-BR-3 [9]): 0.7%; Activity (SK-BR-3 [10]): 9.5%; inhibition at 25 µM (SK-BR-3 [11]): 46.7%; inhibition at 25 µM (MDA-MB-231 [12]): 31.4%; inhibition at 25 µM (MCF7 [13]): 32.4%; inhibition at 25 µM (SK-BR-3 [14]): 45.6%; inhibition at 25 µM (MDA-MB-231 [15]): 32.3%; inhibition at 25 µM (MCF7 [16]): 15.9%
7 | S=C(N/N=C\c1ccc2c(c1)OCO2)NC1CCCCC1 | – | – | 61.6 µM | – | – | inactive | inactive | inhibition (MDA-MB-231 [17]): inactive
8 | Oc1ccc(/C=N\NC(=S)NC2CCCCC2)c(O)c1 | 56.6 µM | 44.6 µM | 27.7 µM | 105 µM | – | – | – | –
9 | CCOc1ccc(/C=N\NC(=S)NC2CCCCC2)cc1 | 68.2 µM | 252 µM | 29.9 µM | 166 µM | Active | – | – | inhibition (SK-BR-3 [5]): Active; Activity (SK-BR-3 [9]): 0.7%; Activity (SK-BR-3 [10]): 11.1%
10 | O=[N+]([O-])c1ccc(/C=N\NC(=S)NC2CCCCC2)cc1 | – | – | 41 µM | – | – | inactive | inactive | inhibition (MDA-MB-231 [17]): inactive
11 | O=[N+]([O-])c1ccccc1/C=N\NC(=S)NC1CCCCC1 | 118 µM | – | 46.5 µM | – | – | inactive | inactive | –
12 | COc1ccc(/C=N\NC(=S)NC2CCCCC2)cc1OC | – | – | 47.9 µM | 99.2 µM | – | inactive | – | inhibition (MDA-MB-231 [17]): inactive
13 | CC[C@@H](C(=O)[C@@H](C)[C@@H](O)[C@H](C)[C@@H]1O[C@@H]([C@@H](CC)C(=O)O)CC[C@@H]1C)[C@H]1O[C@]2(C=C[C@@H](O)[C@]3(CC[C@@](C)([C@H]4CC[C@](O)(CC)[C@H](C)O4)O3)O2)[C@H](C)C[C@@H]1C [SALINOMYCIN] | – | – | – | – | – | – | – | Activity (SK-BR-3 [9]): 0.6%; Activity (SK-BR-3 [10]): 30%
14 | S=C(N/N=C\c1ccc(Cl)cc1)NC1CCCCC1 | 38.3 µM | 41.6 µM | 32.2 µM | 91.4 µM | – | – | – | –
15 | S=C(N/N=C\c1ccco1)NC1CCCCC1 | 141 µM | – | 45.7 µM | – | – | inactive | inactive | –
16 | Oc1cccc(/C=N\NC(=S)NC2CCCCC2)c1 | 24.5 µM | 32.2 µM | 25.6 µM | – | Active | – | inactive | inhibition (SK-BR-3 [5]): Active

— ChEMBL document CHEMBL3580638, “Targeting HER-2 over expressed breast cancer cells with 2-cyclohexyl-N-[(Z)-(substituted phenyl/furan-2-yl/thiophene-2-yl)methylidene]hydrazinecarbothioamide” (Bioorg Med Chem Lett, 2014)
